Earlier results in patent US12507891B2 (priority 2020, dated 2025).

Settings: incrementally increased propofol hypnosis

Compound: CC(C)c1cccc(C(C)C)c1O [propofol]
- PUAL under propofol hypnosis: PUAL values remain within normal ranges until a subject becomes completely unresponsive
